The target in test [1] is T1, 5HT2A receptor (h5HT2A-Dx-U2OS cells) (Homo sapiens, UniProt P28223).
T1 construct: beta-galactosidase enzyme fragment for complementation (the print says only EFC; from my own knowledge of PathHunter it is the ProLink tag on the receptor's C-terminus); host or cells: U2OS (h5HT2A-Dx-U2OS)
Briefly: cell-based.
Method: Cells were incubated with nelotanserin or clozapine for 90 minutes at 37° C. followed by addition of DiscoverX detection reagent for 60 minutes, after which luminescence was measured.
Drug treatment was performed for 90 minutes at 37 degrees Celsius followed by addition of DiscoverX detection reagent for 60 minutes at room temperature, after which luminescence was measured.
Cells were incubated with nelotanserin or clozapine for 90 minutes at 37° C. followed by addition of DiscoveRx detection reagent for 60 minutes, after which luminescence was measured.

Test [2] has as its system C57Bl/6J male mice. The test is described as follows: PCP-induced hyperlocomotion in open field activity monitors. Conditions: Mus musculus. Type of test: in vivo.
Method: PCP-induced hyperlocomotion was measured in open field activity monitor chambers. […] All studies were performed in a blinded and randomized manner and potencies were calculated. Clozapine was used as the basis for comparison.
The data depicted in FIGS. 2-5, summarizes Mouse data—Male C57BL6J mice from JAX ˜12 weeks old. Studies were randomized and investigator was blinded. The figures contain three ways of analyzing the data obtained from the Versamax open field activity monitors on the same cohort of mice. The infrared beams in the chambers measure breaks in X, Y, and Z planes. Typically data are reported for Horizontal beam breaks and sometimes for distance travelled and stereotypy in studies involving PCP.
Male C57BL6 mice from JAX were used at 12-15 weeks of age, n=6 for all conditions). All mice were naïve at the time of testing. […] Mice were then treated with 0.9% saline (i.p.) or PCP (10 mg/kg, i.p.) and monitored for an additional 60 minutes. All measurements were recorded by VersaMax software, and experimenter was blinded to treatment. The summary figure is a compilation of distance travelled over the last 60 minutes with drug treatment. […] Data analyzed via two-way ANOVA followed by Sidak post hoc test to assess statistical differences between animals which received saline of PCP following nelotanserin, clozapine, or vehicle.
Male C57BL6 mice from JAX were used at 12-15 weeks of age, n=6 for all conditions). All mice were naïve at the time of testing. […] Mice were then treated with 0.9% saline (i.p.) or PCP (10 mg/kg, i.p.) and monitored for an additional 60 minutes. All measurements were recorded by VersaMax software, and experimenter was blinded to treatment. The summary figure is a compilation of the sum of beam breaks (X, Y plane) monitored over the last 60 minutes. […] Data analyzed via two-way ANOVA followed by Sidak post hoc test to assess statistical differences between animals which received saline of PCP following nelotanserin, clozapine, or vehicle.
Male C57BL6 mice from JAX were used at 12-15 weeks of age, n=6 for all conditions). All mice were naïve at the time of testing. […] Mice were then treated with 0.9% saline (i.p.) or PCP (10 mg/kg, i.p.) and monitored for an additional 60 minutes. All measurements were recorded by VersaMax software, and experimenter was blinded to treatment. The summary figure is a compilation of the sum of beam breaks (X, Y, Z stereotypy measures) monitored over the last 60 minutes. […] Data analyzed via two-way ANOVA followed by Sidak post hoc test to assess statistical differences between animals which received saline of PCP following nelotanserin, clozapine, or vehicle.
Test [3] concerns C57Bl/6J male mice. The test is described as follows: DOI-induced head twitch response in mice. Type of test: in vivo. The note with it: Mus musculus.
The test system of test [4] is panel of 66 receptors and ion channels. The test is described as follows: panel of 66 receptors and ion channels.
Test [5] deals with serotonin-induced intracellular calcium release. Briefly: serotonin-induced intracellular calcium release assay. Type of test: cell-based. The note with it: FIG. 6. For orientation: A change in cytosolic calcium serves as a functional read-out for many receptors and channels.
Test [6] has as its target T2, 5HT2C (Homo sapiens, UniProt P28335).
T2 sequence (P28335 33-458): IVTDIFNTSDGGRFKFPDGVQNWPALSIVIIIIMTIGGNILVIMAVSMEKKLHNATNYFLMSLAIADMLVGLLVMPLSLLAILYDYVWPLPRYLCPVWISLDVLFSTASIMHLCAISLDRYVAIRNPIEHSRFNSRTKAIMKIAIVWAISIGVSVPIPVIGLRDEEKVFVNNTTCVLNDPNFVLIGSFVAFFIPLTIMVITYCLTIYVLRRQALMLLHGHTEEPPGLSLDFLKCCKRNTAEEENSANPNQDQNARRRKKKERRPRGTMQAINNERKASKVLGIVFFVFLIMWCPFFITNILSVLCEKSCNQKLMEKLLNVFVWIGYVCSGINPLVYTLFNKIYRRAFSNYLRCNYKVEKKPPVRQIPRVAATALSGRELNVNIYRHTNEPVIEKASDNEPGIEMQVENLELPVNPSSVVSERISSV
Briefly: selectivity of 5HT2A inverse agonist over 5HT2C. Conditions: 5HT2A over 5HT2C.

The mark [7] stands for this setting: compound alone, βarrestin2 recruitment.

T1 sequence (P28223 whole entry, the tested form may be a part): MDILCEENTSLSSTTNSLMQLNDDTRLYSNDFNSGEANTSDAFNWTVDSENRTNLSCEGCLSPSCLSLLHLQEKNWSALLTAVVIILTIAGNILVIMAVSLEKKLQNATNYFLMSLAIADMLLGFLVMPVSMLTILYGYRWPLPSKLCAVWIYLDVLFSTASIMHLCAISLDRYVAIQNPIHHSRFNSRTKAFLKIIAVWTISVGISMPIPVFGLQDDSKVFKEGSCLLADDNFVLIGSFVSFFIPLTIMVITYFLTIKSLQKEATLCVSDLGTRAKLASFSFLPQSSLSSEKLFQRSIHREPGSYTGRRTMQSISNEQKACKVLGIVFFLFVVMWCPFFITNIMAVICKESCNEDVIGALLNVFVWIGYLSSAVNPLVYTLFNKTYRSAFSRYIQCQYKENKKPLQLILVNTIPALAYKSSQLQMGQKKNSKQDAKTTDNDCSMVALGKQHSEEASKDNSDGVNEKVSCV

Consider `NCCc1c[nH]c2ccc(O)cc12` [Compound 5HT, serotonin, reference compound], for which, in test [1] (setting [7]), the “% Max of 5HT” value is listed as 98.20%.

A word on the EC50: it is the midpoint of the concentration-response curve. By IC50 is commonly meant the point on the concentration scale where inhibition reaches its midpoint. As for `COc1ccc(NC(=O)Nc2ccc(F)cc2F)cc1-c1c(Br)cnn1C` [Nelotanserin, nelotanserin], the ED50 is 3.8 mg/kg in test [2] (ip, 1 h, beam breaks X, Y, Z, nelotanserin 1-10 mg/kg i.p., PCP 10 mg/kg i.p., last 60 minutes, read-out: ED 50 (95% confidence limits), stereotypy counts of FIG. 4); 4.3 mg/kg in test [2] (ip, 1 h, horizontal beam breaks (X, Y plane), nelotanserin 1-10 mg/kg i.p., PCP 10 mg/kg i.p., last 60 minutes, read-out: ED 50 (95% confidence limits), beam breaks data of FIG. 3); 3 mg/kg in test [2] (ip, 1 h, nelotanserin 1-10 mg/kg i.p., PCP 10 mg/kg i.p., last 60 minutes, read-out: ED 50 (95% confidence limits), total distance traveled data of FIG. 2); 3 mg/kg in test [2] (i.p., 30 minutes before PCP 10 mg/kg i.p., read-out: ED50 (95% CL), inhibition of PCP-induced hyperlocomotor activity); 2.4 mg/kg in test [3] (read-out: ED50 (95% CL), block of DOI-induced head twitches); 2.4 mg/kg in test [3] (read-out: ED 50 (95% confidence limits), DOI-induced head twitch of FIG. 5). Further, the “activity in a panel of 66 receptors and ion channels” value in test [4] is “inactive”. Besides, the “serotonin-induced intracellular calcium release” value in test [5] is given as “inhibited”. The “potency relative to pimavanserin or clozapine, intracellular calcium release” value in test [5] (serotonin-induced) is given as “about 2 fold”. In test [1], this compound showed an EC50 of 3.74 nM. For the same compound, the “% Max of 5HT” value in test [1] (setting [7]) is on record as −2.21%. Also, the Fold in test [1] (setting [7]) was 0.90 Fold. The IC50 in test [1] (serotonin-induced, h5HT2A-Dx-U2OS cells, 90 minutes at 37° C., read-out: IC50 (SEM), antagonist of the recruitment of β-arrestin 2 to the 5HT2A receptor) is 3.74 nM. Further, the “selectivity over 5HT2C” value in test [6] is on record as 80 fold.

The record behind these values is patent US20210128528A1, “USE OF 5HT2A INVERSE AGONISTS FOR TREATING PSYCHOSIS” (Axovant Sciences GmbH, priority 2017, published 2021).
